Experimental data from patent publication US9937235B2, “Lipidated peptides as anti-obesity agents” (USTAV ORGANICKE CHEMIE A BIOCHEMIE AKADEMIE VED CR, V.V.I, priority 2012, dated 2018).
Where a SMILES comes first, the peptide text is derived from it. [ ]: non-standard residue; d: D form. The star is where a group is joined. Palmitoyl = CCCCCCCCCCCCCCCC(=O)*; Myristoyl = CCCCCCCCCCCCCC(=O)*; Nle = CCCC[C@H](N)C(=O)O; Dap = NC[C@H](N)C(=O)O

How the values were obtained:
[1] = test system: MAPK/ERK1/2 signaling pathway in RC-4B/C cells; assay: MAPK/ERK1/2 signaling in RC-4B/C cells (Western blot); format: cell-based, rat; details: 10^−6 mol·l^−1, 5 minute incubation
[2] = test system: Fos immunoreactivity in Arc, PVN and NTS; assay: Fos immunohistochemistry after SC administration; format: in vivo, mouse; details: 90 minutes after SC 5 mg/kg, fasted mice
Protocol: For Fos immunohistochemical processing, overnight fasted mice (n=5 mice/group) were treated SC with saline, [Dpr^1]PrRP31, [Dpr(oct)^1]PrRP31, [Dpr(myr)^1]PrRP31 or [Dpr(palm)^1]PrRP31 (dose 5 mg/kg). Ninety minutes after SC injection, the mice were deeply anesthetized with pentobarbital (50 mg/kg, IP) and perfused transcardially with 0.1 M phosphate buffer (PB, pH 7.4) containing 4% paraformaldehyde, 0.1% glutaraldehyde, and 10% picric acid (w/w). Then the brains were removed, postfixed in the same fixative overnight at 4° C., and infiltrated with 30% sucrose in 0.1 M PB for 48 h at 4° C. Before sectioning, the brains were rapidly (20 sec) frozen in cold isopentane (−30/−40° C.) and placed into a Reichert cryocut device adjusted to −16° C. for 1 h. 30 μm coronal sections were cut from the brains and collected as free floating in cold (4° C.) PB. […]
An identical set of mice was used for determination of Fos immunoreactivity in NTS, PVN, and Arc. […] Quantitative assessment was performed from the images captured with a Canon digital camera (PowerShot S40) and Leica DMLS light microscope in a computer screen obtained from 5-6 brain sections per animal. […] The counting of Fos-positive neurons was done under blinded conditions (the counted slides from each animal were analyzed independently and randomly and encoded by other person).

| Compound | ERK signaling [1] | Neural activity, Fos immunoreactivity [2] |
| --- | --- | --- |
| CCCCCCCCCCCCCCCC(=O)NC[C@H](N)C(=O)N[C@@H](CCCNC(=N)N)C(=O)N[C@@H](C)C(=O)N[C@@H](Cc1c[nH]cn1)C(=O)N[C@@H](CCC(N)=O)C(=O)N[C@@H](Cc1c[nH]cn1)C(=O)N[C@@H](CO)C(=O)N[C@@H](CCCC)C(=O)N[C@@H](CCC(=O)O)C(=O)N[C@H](C(=O)N[C@@H](CCCNC(=N)N)C(=O)N[C@H](C(=O)N1CCC[C@H]1C(=O)N[C@@H](CC(=O)O)C(=O)N[C@H](C(=O)N[C@@H](CC(N)=O)C(=O)N1CCC[C@H]1C(=O)N[C@@H](C)C(=O)N[C@@H](Cc1c[nH]c2ccccc12)C(=O)N[C@@H](Cc1ccc(O)cc1)C(=O)N[C@H](C(=O)NCC(=O)N[C@@H](CCCNC(=N)N)C(=O)NCC(=O)N[C@H](C(=O)N[C@@H](CCCNC(=N)N)C(=O)N1CCC[C@H]1C(=O)N[C@H](C(=O)NCC(=O)N[C@@H](CCCNC(=N)N)C(=O)N[C@@H](Cc1ccccc1)C(N)=O)C(C)C)[C@@H](C)CC)[C@@H](C)O)[C@@H](C)CC)[C@@H](C)O)[C@@H](C)O [Analog 6] (H-[Dap](Palmitoyl)RAHQHS[Nle]ETRTPDINPAWYTGRGIRPVGRF-NH2) | agonist | significantly increased |
| CCCCCCCCCCCCCC(=O)NC[C@H](N)C(=O)N[C@@H](CCCNC(=N)N)C(=O)N[C@@H](C)C(=O)N[C@@H](Cc1c[nH]cn1)C(=O)N[C@@H](CCC(N)=O)C(=O)N[C@@H](Cc1c[nH]cn1)C(=O)N[C@@H](CO)C(=O)N[C@@H](CCCC)C(=O)N[C@@H](CCC(=O)O)C(=O)N[C@H](C(=O)N[C@@H](CCCNC(=N)N)C(=O)N[C@H](C(=O)N1CCC[C@H]1C(=O)N[C@@H](CC(=O)O)C(=O)N[C@H](C(=O)N[C@@H](CC(N)=O)C(=O)N1CCC[C@H]1C(=O)N[C@@H](C)C(=O)N[C@@H](Cc1c[nH]c2ccccc12)C(=O)N[C@@H](Cc1ccc(O)cc1)C(=O)N[C@H](C(=O)NCC(=O)N[C@@H](CCCNC(=N)N)C(=O)NCC(=O)N[C@H](C(=O)N[C@@H](CCCNC(=N)N)C(=O)N1CCC[C@H]1C(=O)N[C@H](C(=O)NCC(=O)N[C@@H](CCCNC(=N)N)C(=O)N[C@@H](Cc1ccccc1)C(N)=O)C(C)C)[C@@H](C)CC)[C@@H](C)O)[C@@H](C)CC)[C@@H](C)O)[C@@H](C)O [Analog 5] (H-[Dap](Myristoyl)RAHQHS[Nle]ETRTPDINPAWYTGRGIRPVGRF-NH2) | agonist | significantly increased |
